Like-named read-outs stand apart in the source and are kept apart here.
Key:
[1] = Plasma pharmacokinetics of free CPT in mice (comparison); format: in vivo; conditions: after 8 h, CPT alone at 10 mg/kg, CD2F1 mice
Protocol: Free CPT injected at 10 mg/kg into CD2F1 mice is shown as comparison. […] (B) Plasma concentration of unconjugated CPT as a function of time.

BT-474 xenograft tumors = tested on: BT-474 xenograft tumors
Protocol: Treatments began on day 1. […] All treatments were freshly prepared and given via intravenous tail vein injection. Injections were standardized at 150 μl per 20 g body weight of mice. […] Tumor sizes were recorded three times a week using caliper measurements (length×width2/2) and health of the animals was continuously monitored. Animals were euthanized when tumor volumes exceeded 1000 mm^3. Six weeks after beginning of the treatment, animals were euthanized by CO2 asphyxiation.

[2] = CPT 8 mg/kg i.v. once per week for 3 weeks, Nbegin 8
[3] = Irinotecan 80 mg/kg i.v. once per week for 3 weeks, Nbegin 8

SMILES	Injected dose remaining in circulation [1] [%]	Tumor inhibition compared to control group (BT-474 xenograft tumors; CPT 8 mg/kg i.v. once per week for 3 weeks)	NNTRD (number of non-treatment related death) (BT-474 xenograft tumors; [2])	NTRD (number of treatment related death) (BT-474 xenograft tumors; [2])	Nend (number of animals surviving to end of study) (BT-474 xenograft tumors; [2])	Tumor inhibition compared to control group (BT-474 xenograft tumors; Irinotecan 80 mg/kg i.v. once per week for 3 weeks)	NNTRD (number of non-treatment related death) (BT-474 xenograft tumors; [3])	NTRD (number of treatment related death) (BT-474 xenograft tumors; [3])	Nend (number of animals surviving to end of study) (BT-474 xenograft tumors; [3])	Neuthan (number of animals euthanized due to exceeding tumor size limit of 1000 mm^3) (BT-474 xenograft tumors; [3])	Nreg to zero (number of animals with tumors regressed to zero at the end of study) (BT-474 xenograft tumors; [3])
CC[C@@]1(O)C(=O)OCc2c1cc1n(c2=O)Cc2cc3ccccc3nc2-1 [CPT, Camptothecin]	0.01	no tumor inhibition	0	4	8/0	–	–	–	–	–	–
CCc1c2c(nc3ccc(OC(=O)N4CCC(N5CCCCC5)CC4)cc13)-c1cc3c(c(=O)n1C2)COC(=O)[C@]3(O)CC [Irinotecan]	–	–	–	–	–	non-significant tumor inhibition	0	1	8/7	0	0

From patent publication US9132097B2, “Nanoparticles stabilized with nitrophenylboronic acid compositions” (California Institute of Technology, priority 2013, dated 2015)
